Laboratory results: US7998978B2 (Pfizer Inc., priority 2006, dated 2011)

Target: T1, JNK1α1 (Homo sapiens, UniProt P45983)
T1 construct: catalytic domain containing amino acids 1-364 and N-terminal hexahistidine tag; hexahistidine (His6) (N); made in house; host or cells: E. coli BL21 (DE3)
Test: Coupled spectrophotometric (PK/LDH) JNK1α1 assay: % inhibition and Ki determination
Type: biochemical
Settings: for Ki: JNK-1; for inhibition at 10 µM / inhibition at 1 µM: read-out: % Inhibition JNK-1
How it was run: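 Initial rates were taken from the absorbance decrease at 340 nm at 30° C. Ki was fitted with a tight-binding model over 11 concentrations (top 100 μM); single-point inhibition was tested at 1 or 10 μM.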

T1 sequence (P45983 1-364): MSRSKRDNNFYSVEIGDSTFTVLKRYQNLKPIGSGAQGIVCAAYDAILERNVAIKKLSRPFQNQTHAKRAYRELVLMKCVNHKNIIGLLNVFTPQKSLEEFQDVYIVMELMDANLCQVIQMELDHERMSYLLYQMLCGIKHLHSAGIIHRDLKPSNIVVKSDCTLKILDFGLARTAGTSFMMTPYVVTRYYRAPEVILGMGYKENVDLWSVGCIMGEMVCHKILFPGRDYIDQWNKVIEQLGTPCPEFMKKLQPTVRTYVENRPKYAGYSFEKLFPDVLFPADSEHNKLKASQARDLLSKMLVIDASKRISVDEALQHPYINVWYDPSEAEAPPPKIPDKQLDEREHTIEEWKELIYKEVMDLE

CN(C)C(=O)CNC(=O)c1ccc2cnc(N[C@H]3CC[C@H](O)CC3)nc2c1 [Example 368, N-[2-(dimethylamino)-2-oxoethyl]-2-[(trans-4-hydroxycyclohexyl)amino]quinazoline-7-carboxamide] gave a Ki of 2290 nM.

Compound O=C(NCC1(O)CCCC1)c1cccc2cnc(N[C@H]3CC[C@H](O)CC3)nc12 [Example 460, 2-[(trans-4-hydroxycyclohexyl)amino]-N-[(1-hydroxycyclopentyl)methyl]quinazoline-8-carboxamide] has a Ki of 400 nM.

In the case of COC(=O)N1CCC(c2cccc3cnc(N[C@H]4CC[C@H](O)CC4)nc23)C1 (stereo partly drawn) [Example 196, methyl 3-{2-[(trans-4-hydroxycyclohexyl)amino]quinazolin-8-yl}pyrrolidine-1-carboxylate], the Ki is reported as 56 nM.

In the case of COc1ccc2c(c1OC)CC[C@@H]2C(=O)Nc1cc2cc(-c3cn[nH]c3)ccc2cn1 [Example 22, (S)-4,5-dimethoxy-N-[6-(1H-pyrazol-4-yl)isoquinolin-3-yl]indane-1-carboxamide], the Ki is reported as > 50 nM.

In the case of CC(C)C(CO)NC(=O)c1cccc2cnc(N[C@H]3CC[C@H](O)CC3)nc12 (stereo partly drawn) [Example 450, 2-[(trans-4-hydroxycyclohexyl)amino]-N-[1-(hydroxymethyl)-2-methylpropyl]quinazoline-8-carboxamide], the Ki is reported as 144 nM.

With CC(=O)N1CCC(CNC(=O)c2cccc3cnc(N[C@H]4CC[C@H](O)CC4)nc23)CC1 [Example 505, N-[(1-acetylpiperidin-4-yl)methyl]-2-[(trans-4-hydroxycyclohexyl)amino]quinazoline-8-carboxamide] the inhibition at 10 µM was 58%.

With O[C@H]1CC[C@H](Nc2ncc3cccc(OCCN4CCCCC4)c3n2)CC1 [Example 255, trans-4-{[8-(2-piperidin-1-ylethoxy)quinazolin-2-yl]amino}cyclohexanol] the inhibition at 1 µM was 12%.

For c1ccc2nc(CNc3cc4cc(-c5cn[nH]c5)ccc4cn3)cnc2c1 [Example 222, 6-(1H-pyrazol-4-yl)-N-(quinoxalin-2-ylmethyl)isoquinolin-3-amine], the Ki was 2950 nM.

Compound CC1(CNC(=O)c2ccc3cnc(N[C@H]4CC[C@H](O)CC4)nc3c2)COC1 [Example 335, 2-[(trans-4-hydroxycyclohexyl)amino]-N-[(3-methyloxetan-3-yl)methyl]quinazoline-7-carboxamide] has a Ki of 483 nM.

With CC(C)NC(=O)c1cccc2cnc(N[C@H]3CC[C@H](O)CC3)nc12 [Example 103, 2-[(trans-4-hydroxycyclohexyl)amino]-N-isopropylquinazoline-8-carboxamide] the Ki was 176 nM.

O=C(NCCC1CCCCO1)c1cccc2cnc(N[C@H]3CC[C@H](O)CC3)nc12 (stereo partly drawn) [Example 515, 2-[(trans-4-hydroxycyclohexyl)amino]-N-[2-(tetrahydro-2H-pyran-2-yl)ethyl]quinazoline-8-carboxamide] was tested, and the inhibition at 1 µM was 19%.

Compound O=C(NCCCO)c1cccc2cnc(N[C@H]3CC[C@H](O)CC3)nc12 [Example 451, 2-[(trans-4-hydroxycyclohexyl)amino]-N-(3-hydroxypropyl)quinazoline-8-carboxamide] has a Ki of 166 nM.

In the case of O=C(NCCc1ccccc1)c1ccc2cnc(N[C@H]3CC[C@H](O)CC3)nc2c1 [Example 63, 2-[(trans-4-hydroxycyclohexyl)amino]-N-(2-phenylethyl)quinazoline-7-carboxamide], the Ki is reported as 460 nM.

Work on CC(C)Nc1ncc2ccc(C(=O)N[C@H](CO)CC3CCCCC3)cc2n1 [Example 429, N-[(1S)-2-cyclohexyl-1-(hydroxymethyl)ethyl]-2-(isopropylamino)quinazoline-7-carboxamide] yielded an inhibition at 1 µM of 25%.

With CO[C@H]1CCCC[C@@H]1Oc1ccc2cnc(N[C@H]3CC[C@H](O)CC3)nc2c1 [Example 291, trans-4-[(7-{[(1S,2S)-2-methoxycyclohexyl]oxy}quinazolin-2-yl)amino]cyclohexanol] the inhibition at 1 µM was 37%.

Work on COc1ccc2[nH]c(C)c(CC(=O)Nc3cc4cc(-c5cn[nH]c5)ccc4cn3)c2c1 [Example 2, 2-(5-methoxy-2-methyl-1H-indol-3-yl)-N-[6-(1H-pyrazol-4-yl)isoquinolin-3-yl]acetamide] yielded a Ki of 77 nM.

In the case of CN(C)C(=O)CNC(=O)c1cccc2cnc(N[C@H]3CC[C@H](O)CC3)nc12 [Example 509, N-[2-(dimethylamino)-2-oxoethyl]-2-[(trans-4-hydroxycyclohexyl)amino]quinazoline-8-carboxamide], the inhibition at 10 µM is reported as 49%.

In the case of O=C(N[C@H](CO)Cc1ccccc1)c1ccc2cnc(NC3CCCC3)nc2c1 [Example 408, N-[(1S)-1-benzyl-2-hydroxyethyl]-2-(cyclopentylamino)quinazoline-7-carboxamide], the Ki is reported as 743 nM.

CN(C)C(C)(C)COc1ccc2cnc(N[C@H]3CC[C@H](O)CC3)nc2c1 [Example 269, trans-4-({7-[2-(dimethylamino)-2-methylpropoxy]quinazolin-2-yl}amino)cyclohexanol] was tested, and the inhibition at 1 µM was 29%.

In the case of CCC1(COc2cccc3cnc(N[C@H]4CC[C@H](O)CC4)nc23)COC1 [Example 246, trans-4-({8-[(3-ethyloxetan-3-yl)methoxy]quinazolin-2-yl}amino)cyclohexanol], the Ki is reported as 257 nM.

With Cc1ccccc1-c1cccc2cnc(N[C@H]3CC[C@H](O)CC3)nc12 [Example 200, trans-4-{[8-(2-methylphenyl)quinazolin-2-yl]amino} cyclohexanol] the Ki was 186 nM.

Compound c1cc(OC2CCOCC2)c2nc(NC3CCOCC3)ncc2c1 [Example 175, N-(tetrahydro-2H-pyran-4-yl)-8-(tetrahydro-2H-pyran-4-yloxy)quinazolin-2-amine] has a Ki of 880 nM.

With O=C(Nc1nccc(O)n1)c1cccc2cnc(N[C@H]3CC[C@H](O)CC3)nc12 [Example 125, 2-[(trans-4-hydroxycyclohexyl)amino]-N-(4-hydroxypyrimidin-2-yl)quinazoline-8-carboxamide] the Ki was 520 nM.

Cc1nnc(CNC(=O)c2cccc3cnc(N[C@H]4CC[C@H](O)CC4)nc23)[nH]1 [Example 511, 2-[(trans-4-hydroxycyclohexyl)amino]-N-[(5-methyl-4H-1,2,4-triazol-3-yl)methyl]quinazoline-8-carboxamide] showed an inhibition at 10 µM of 47%.

With CC[C@H](C)[C@@H](CO)NC(=O)c1ccc2cnc(NC3CCCCC3)nc2c1 [Example 380, 2-(cyclohexylamino)-N-[(1S,2S)-1-(hydroxymethyl)-2-methylbutyl]quinazoline-7-carboxamide] the Ki was 187 nM.

In the case of COc1cc2c(cc1CNc1cc3cc(-c4cn[nH]c4)ccc3cn1)N(C)C(=O)CC2 [Example 219, 6-methoxy-1-methyl-7-({[6-(1H-pyrazol-4-yl)isoquinolin-3-yl]amino}methyl)-3,4-dihydroquinolin-2(1H)-one], the Ki is reported as 1160 nM.

For Cc1n[nH]c(C)c1CNC(=O)c1cccc2cnc(N[C@H]3CC[C@H](O)CC3)nc12 [Example 452, N-[(3,5-dimethyl-1H-pyrazol-4-yl)methyl]-2-[(trans-4-hydroxycyclohexyl)amino]quinazoline-8-carboxamide], the Ki was 166 nM.

For FC1(F)CCC(Nc2ncc3cccc(OC4CCOC4)c3n2)CC1 (stereo not drawn) [Example 174, N-(4,4-difluorocyclohexyl)-8-(tetrahydrofuran-3-yloxy)quinazolin-2-amine], the Ki was 999 nM.

COc1ccc(CCCC(=O)Nc2cc3cc(-c4cn[nH]c4)ccc3cn2)cc1 [Example 41, 4-(4-methoxyphenyl)-N-[6-(1H-pyrazol-4-yl)isoquinolin-3-yl]butanamide] was tested, and the Ki was 14 nM.

CS(=O)(=O)N[C@H]1CC[C@H](Nc2ncc3cccc(C(=O)N[C@@H]4CCC[C@H]4O)c3n2)CC1 (relative stereo) [Example 137, N-[(trans)-2-hydroxycyclopentyl]-2-({trans-4-[(methylsulfonyl)amino]cyclohexyl}amino)quinazoline-8-carboxamide] showed a Ki of 263 nM.

In the case of CC(C)Nc1ncc2cccc(OC3CCOC3)c2n1 (stereo not drawn) [Example 172, N-isopropyl-8-(tetrahydrofuran-3-yloxy)quinazolin-2-amine], the Ki is reported as 3570 nM.

O=C(NCCN1CCCC1=O)c1cccc2cnc(N[C@H]3CC[C@H](O)CC3)nc12 [Example 493, 2-[(trans-4-hydroxycyclohexyl)amino]-N-(2-(2-oxopyrrolidin-1-yl)ethyl]quinazoline-8-carboxamide] gave an inhibition at 1 µM of 11%.

In the case of O=C(NCc1ccccn1)c1cccc2cnc(N[C@H]3CC[C@H](O)CC3)nc12 [Example 468, 2-[(trans-4-hydroxycyclohexyl)amino]-N-(pyridin-2-ylmethyl)quinazoline-8-carboxamide], the inhibition at 1 µM is reported as 15%.

In the case of COc1cccc2cnc(NC3CCCCC3)nc12 [Example 149], the Ki is reported as 485 nM.

With O=C(N[C@@H]1COC[C@H]1O)c1ccc2cnc(NC3CCCC3)nc2c1 [Example 435, 2-(cyclopentylamino)-N-[(3R,4S)-4-hydroxytetrahydrofuran-3-yl]quinazoline-7-carboxamide] the inhibition at 1 µM was 22%.

Compound O=C(COc1ccc2ccccc2c1)Nc1cc2cc(-c3cn[nH]c3)ccc2cn1 [Example 26, 2-(2-naphthyloxy)-N-[6-(1H-pyrazol-4-yl)isoquinolln-3-yl]acetamide] has a Ki of 7 nM.

With O=S(=O)(N[C@H]1CC[C@H](Nc2ncc3ccc(OC4CCOC4)cc3n2)CC1)c1ccccc1 (stereo partly drawn) [Example 165, N-(trans-4-{[7-(tetrahydrofuran-3-yloxy)quinazolin-2-yl]amino}cyclohexyl)benzenesulfonamide] the Ki was 153 nM.

In the case of Cc1nnc(CCNC(=O)c2cccc3cnc(N[C@H]4CC[C@H](O)CC4)nc23)[nH]1 [Example 478, 2-[(trans-4-hydroxycyclohexyl)amino]-N-[2-(5-methyl-4H-1,2,4-triazol-3-yl)ethyl]quinazoline-8-carboxamide], the inhibition at 1 µM is reported as 12%.

For O=C(N[C@H]1CC[C@H](CO)CC1)c1cccc2cnc(N[C@H]3CC[C@H](O)CC3)nc12 [Example 457, 2-[(trans-4-hydroxycyclohexyl)amino]-N-[trans-4-(hydroxymethyl)cyclohexyl]quinazoline-8-carboxamide], the Ki was 275 nM.
